Test results reported in patent publication US8975398B2, “NAMPT inhibitors” (AbbVie Inc., priority 2012, dated 2015).

Key:
[1] = target: NAMPT (human, recombinant, C-terminally His-tagged) (Homo sapiens, UniProt P43490); assay: Time-Resolved Fluorescence Resonance Energy Transfer (TR-FRET) Binding Assay of NAMPT; details: 6.8 nM NAMPT, 200 nM probe, equilibrated 3 hours, absence of substrates
In short: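 Probe displacement measured by TR-FRET (Ex 337 nm; 520/495 nm ratio) after 3 h room-temperature equilibration of compound with 6.8 nM His-tagged human NAMPT, 1 nM Tb-anti-His antibody and 200 nM Oregon Green 488 nicotinamide-site probe, pH 7.5 HEPES buffer, 2% DMSO. Control-normalized data fit four-parameter logistic for IC50.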

NAMPT = NAMPT (Homo sapiens, UniProt P43490); assay: Time-Resolved Fluorescence Resonance Energy Transfer (TR-FRET) Binding Assay of NAMPT with PRPP; details: 2 nM NAMPT, 2 nM probe, 200 uM PRPP and 2.5 mM ATP, equilibrated 16 hours
Chain of NAMPT (P43490 whole entry): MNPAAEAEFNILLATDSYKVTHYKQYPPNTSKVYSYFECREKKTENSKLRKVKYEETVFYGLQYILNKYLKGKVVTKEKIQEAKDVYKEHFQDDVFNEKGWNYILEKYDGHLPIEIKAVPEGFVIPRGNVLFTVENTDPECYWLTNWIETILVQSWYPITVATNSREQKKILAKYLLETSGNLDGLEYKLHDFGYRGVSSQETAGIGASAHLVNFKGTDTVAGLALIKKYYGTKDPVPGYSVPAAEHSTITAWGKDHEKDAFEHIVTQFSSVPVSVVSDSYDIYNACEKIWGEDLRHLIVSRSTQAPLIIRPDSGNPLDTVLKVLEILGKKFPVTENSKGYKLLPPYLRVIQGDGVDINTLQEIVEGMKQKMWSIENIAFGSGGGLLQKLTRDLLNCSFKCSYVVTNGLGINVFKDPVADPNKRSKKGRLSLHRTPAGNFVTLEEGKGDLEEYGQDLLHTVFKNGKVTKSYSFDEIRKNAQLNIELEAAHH
In short: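 Binding measured by TR-FRET after a 16-hour equilibration meant to permit enzymatic compound modification. Substrates present at 200 uM PRPP and 2.5 mM ATP, with 2 nM enzyme, 2 nM probe, 1 nM Tb-anti-His antibody and 2% DMSO final.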

Chain of NAMPT (human, recombinant, C-terminally His-tagged) (P43490 whole entry): as above

IC50 [1] [nM] | IC50 (NAMPT) [nM] | Compound
91.5 | 89.8 | Cc1ncccc1N1CC(C(=O)Nc2ccc(C3CCN(C(=O)C4(C)CC4)CC3)cc2)C1 [Example 170, N-(4-{1-[(1-methylcyclopropyl)carbonyl]piperidin-4-yl}phenyl)-1-(2-methylpyridin-3-yl)azetidine-3-carboxamide]
19.7 | 37.9 | Cc1ccsc1C(=O)N1CCC(c2ccc(NC(=O)C3CN(c4cccnc4C)C3)cc2)CC1 [Example 171, 1-(2-methylpyridin-3-yl)-N-(4-{1-[(3-methylthiophen-2-yl)carbonyl]piperidin-4-yl}phenyl)azetidine-3-carboxamide]
286 | 170 | Cc1ncccc1N1CC(C(=O)Nc2ccc(C3CCN(C(=O)CCC(F)(F)F)CC3)cc2)C1 [Example 172, 1-(2-methylpyridin-3-yl)-N-{4-[1-(4,4,4-trifluorobutanoyl)piperidin-4-yl]phenyl}azetidine-3-carboxamide]
524 | 154 | Cc1ncccc1N1CC(C(=O)Nc2ccc(C3CCN(C(=O)CN4CCN(C)CC4)CC3)cc2)C1 [Example 173, N-(4-{1-[(4-methylpiperazin-1-yl)acetyl]piperidin-4-yl}phenyl)-1-(2-methylpyridin-3-yl)azetidine-3-carboxamide]
2100 | 158 | Cc1ncccc1N1CC(C(=O)Nc2ccc(C3CCN(C(=O)[C@@H]4CCC(=O)N4)CC3)cc2)C1 [Example 174, 1-(2-methylpyridin-3-yl)-N-{4-[1-(5-oxo-L-prolyl)piperidin-4-yl]phenyl}azetidine-3-carboxamide]
664 | 161 | CCOCCC(=O)N1CCC(c2ccc(NC(=O)C3CN(c4cccnc4C)C3)cc2)CC1 [Example 175, N-{4-[1-(3-ethoxypropanoyl)piperidin-4-yl]phenyl}-1-(2-methylpyridin-3-yl)azetidine-3-carboxamide]
165 | 111 | Cc1ncccc1N1CC(C(=O)Nc2ccc(C3CCN(C(=O)CCC(C)C)CC3)cc2)C1 [Example 176, N-{4-[1-(4-methylpentanoyl)piperidin-4-yl]phenyl}-1-(2-methylpyridin-3-yl)azetidine-3-carboxamide]
60.4 | 91.3 | Cc1ncccc1N1CC(C(=O)Nc2ccc(C3CCN(C(=O)C4(C)CCCCC4)CC3)cc2)C1 [Example 177, N-(4-{1-[(1-methylcyclohexyl)carbonyl]piperidin-4-yl}phenyl)-1-(2-methylpyridin-3-yl)azetidine-3-carboxamide]
247 | 65.2 | CC(=O)N1CCC(c2ccc(NC(=O)C3CN(c4cccnc4C)C3)cc2)CC1 [Example 178, N-[4-(1-acetylpiperidin-4-yl)phenyl]-1-(2-methylpyridin-3-yl)azetidine-3-carboxamide]
99.2 | 70.7 | Cc1ncccc1N1CC(C(=O)Nc2ccc(C3CCN(C(=O)CC4CCCCC4)CC3)cc2)C1 [Example 179, N-{4-[1-(cyclohexylacetyl)piperidin-4-yl]phenyl}-1-(2-methylpyridin-3-yl)azetidine-3-carboxamide]
304 | 123 | CC(=O)N[C@@H](CC(C)C)C(=O)N1CCC(c2ccc(NC(=O)C3CN(c4cccnc4C)C3)cc2)CC1 [Example 180, N-{4-[1-(N-acetyl-L-leucyl)piperidin-4-yl]phenyl}-1-(2-methylpyridin-3-yl)azetidine-3-carboxamide]
284 | 128 | CCC(=O)N1CCC(c2ccc(NC(=O)C3CN(c4cccnc4C)C3)cc2)CC1 [Example 181, 1-(2-methylpyridin-3-yl)-N-[4-(1-propanoylpiperidin-4-yl)phenyl]azetidine-3-carboxamide]
140 | 104 | Cc1ncccc1N1CC(C(=O)Nc2ccc(C3CCN(C(=O)CC(F)(F)F)CC3)cc2)C1 [Example 182, 1-(2-methylpyridin-3-yl)-N-{4-[1-(3,3,3-trifluoropropanoyl)piperidin-4-yl]phenyl}azetidine-3-carboxamide]
1040 | 185 | COCCOCC(=O)N1CCC(c2ccc(NC(=O)C3CN(c4cccnc4C)C3)cc2)CC1 [Example 183, N-(4-{1-[(2-methoxyethoxy)acetyl]piperidin-4-yl}phenyl)-1-(2-methylpyridin-3-yl)azetidine-3-carboxamide]
625 | 78.9 | Cc1ncccc1N1CC(C(=O)Nc2ccc(C3CCN(C(=O)CCN4CCOCC4)CC3)cc2)C1 [Example 184, 1-(2-methylpyridin-3-yl)-N-(4-{1-[3-(morpholin-4-yl)propanoyl]piperidin-4-yl}phenyl)azetidine-3-carboxamide]
81.3 | 44.1 | Cc1ncccc1N1CC(C(=O)Nc2ccc(C3CCN(C(=O)C(C)(C)C)CC3)cc2)C1 [Example 185, N-{4-[1-(2,2-dimethylpropanoyl)piperidin-4-yl]phenyl}-1-(2-methylpyridin-3-yl)azetidine-3-carboxamide]

IC50 [1] [nM] | IC50 (NAMPT) [nM] | Compound
98.9 | 118 | Cc1ccc(C(=O)N2CCC(c3ccc(NC(=O)C4CN(c5cccnc5C)C4)cc3)CC2)s1 [Example 186, 1-(2-methylpyridin-3-yl)-N-(4-{1-[(5-methylthiophen-2-yl)carbonyl]piperidin-4-yl}phenyl)azetidine-3-carboxamide]
10.2 | 27.3 | Cc1ncccc1N1CC(C(=O)Nc2ccc(C3CCN(C(=O)c4cccs4)CC3)cc2)C1 [Example 187, 1-(2-methylpyridin-3-yl)-N-{4-[1-(thiophen-2-ylcarbonyl)piperidin-4-yl]phenyl}azetidine-3-carboxamide]
20.5 | 49.9 | Cc1ncccc1N1CC(C(=O)Nc2ccc(C3CCN(C(=O)c4cccn4C)CC3)cc2)C1 [Example 188, 1-(2-methylpyridin-3-yl)-N-(4-{1-[(1-methyl-1H-pyrrol-2-yl)carbonyl]piperidin-4-yl}phenyl)azetidine-3-carboxamide]
6.91 | 26.9 | Cc1ncccc1N1CC(C(=O)Nc2ccc(C3CCN(C(=O)c4ccco4)CC3)cc2)C1 [Example 189, N-{4-[1-(furan-2-ylcarbonyl)piperidin-4-yl]phenyl}-1-(2-methylpyridin-3-yl)azetidine-3-carboxamide]
1910 | 103 | Cc1ncccc1N1CC(C(=O)Nc2ccc(C3CCN(C(=O)CCN4CCCCC4)CC3)cc2)C1 [Example 190, 1-(2-methylpyridin-3-yl)-N-(4-{1-[3-(piperidin-1-yl)propanoyl]piperidin-4-yl}phenyl)azetidine-3-carboxamide]
743 | 184 | CCOCC(=O)N1CCC(c2ccc(NC(=O)C3CN(c4cccnc4C)C3)cc2)CC1 [Example 191, N-{4-[1-(ethoxyacetyl)piperidin-4-yl]phenyl}-1-(2-methylpyridin-3-yl)azetidine-3-carboxamide]
47.3 | 72.3 | Cc1ncccc1N1CC(C(=O)Nc2ccc(C3CCN(C(=O)CC(C)(C)C)CC3)cc2)C1 [Example 192, N-{4-[1-(3,3-dimethylbutanoyl)piperidin-4-yl]phenyl}-1-(2-methylpyridin-3-yl)azetidine-3-carboxamide]
40.2 | 54 | CCC(C)(C)C(=O)N1CCC(c2ccc(NC(=O)C3CN(c4cccnc4C)C3)cc2)CC1 [Example 193, N-{4-[1-(2,2-dimethylbutanoyl)piperidin-4-yl]phenyl}-1-(2-methylpyridin-3-yl)azetidine-3-carboxamide]
122 | 62.6 | CCCC(=O)N1CCC(c2ccc(NC(=O)C3CN(c4cccnc4C)C3)cc2)CC1 [Example 194, N-[4-(1-butanoylpiperidin-4-yl)phenyl]-1-(2-methylpyridin-3-yl)azetidine-3-carboxamide]
305 | 94.1 | COCC(=O)N1CCC(c2ccc(NC(=O)C3CN(c4cccnc4C)C3)cc2)CC1 [Example 195, N-{4-[1-(methoxyacetyl)piperidin-4-yl]phenyl}-1-(2-methylpyridin-3-yl)azetidine-3-carboxamide]
83.8 | 98.5 | Cc1ncccc1N1CC(C(=O)Nc2ccc(C3CCN(C(=O)C4CCCCC4)CC3)cc2)C1 [Example 196, N-{4-[1-(cyclohexylcarbonyl)piperidin-4-yl]phenyl}-1-(2-methylpyridin-3-yl)azetidine-3-carboxamide]
126 | 79.8 | Cc1ncccc1N1CC(C(=O)Nc2ccc(C3CCN(C(=O)CC(C)C)CC3)cc2)C1 [Example 197, N-{4-[1-(3-methylbutanoyl)piperidin-4-yl]phenyl}-1-(2-methylpyridin-3-yl)azetidine-3-carboxamide]
84.5 | 103 | Cc1ncccc1N1CC(C(=O)Nc2ccc(C3CCN(C(=O)C(C)C(C)C)CC3)cc2)C1 (centres unmarked) [Example 198, N-{4-[1-(2,3-dimethylbutanoyl)piperidin-4-yl]phenyl}-1-(2-methylpyridin-3-yl)azetidine-3-carboxamide]
33.7 | 28 | O=C(Nc1ccc(OC2CN(C(=O)c3ccc(F)cc3)C2)cc1)C1CN(c2ccnnc2)C1 [Example 199, N-(4-{[1-(4-fluorobenzoyl)azetidin-3-yl]oxy}phenyl)-1-(pyridazin-4-yl)azetidine-3-carboxamide]
33.1 | 34.4 | O=C(Nc1ccc(OC2CN(C(=O)c3ccc(F)cc3F)C2)cc1)C1CN(c2ccnnc2)C1 [Example 200, N-(4-{[1-(2,4-difluorobenzoyl)azetidin-3-yl]oxy}phenyl)-1-(pyridazin-4-yl)azetidine-3-carboxamide]
